We go through 2 molecules from US9034309B2, “Biocidal polymers” (Wisconsin Alumni Research Foundation, priority 2003, dated 2015).

The subject of experiment [1] is E. faecium A436 (vancomycin-resistant). The experiment in a line: microbe, parasite or virus in culture. Conditions: for MIC E. faecium A436: Table 3, unit not given (Table 1: μg/mL), median of at least three experiments. It is filed as cell-based, Enterococcus faecium. How it is done: (§1) Minimal Inhibitory Concentration (MIC): Stock solutions of polymers (5.00 μL at 2 mg/mL, prepared as described above), commercial synthetic (Ala^8,3,18)-1-magainin-2-amide (Sigma, dissolved in Millipore water to 1 mg/mL, 10.0 μL, as positive control), or solvent blank (5.00 μL) were diluted into brain-heart infusion (BHI) broth in row A of 96-well sterile assay plates (B-D Falcon 35-3075, Fisher Scientific) and seven serial twofold dilutions were performed to give 50 μL of peptide solution (at double the final assay concentration) in each well. Bacterial strains (Escherichia coli JM1O9, Bacillus subtilis BR151,^24 Staphylococcus aureus 5332 (a clinical MRSA isolate from the Weisblum laboratory strain collection), and Enterococcus faecium A436^25) were grown on 2% bacteriological agar in BHI medium. Cells from these cultures were suspended in BHI broth at a concentration of approximately 10^6 colony-forming units (CFU)/mL, and 50 μL of cell suspension was added to each well to give a total of 100 μL in each well.
(§2) Plates were then incubated at 37° C. for 6 h. Bacterial growth gives rise to turbidity and light scattering, which was detected by measuring 0D650 using a Molecular Devices Emax microplate reader connected to a Windows computer running SOFTmax v.2.34. OD650 values from two simultaneous experiments were averaged. […] If an even number of experiments was performed and the two median values were not identical, the geometric mean is reported as the MIC.

The subject of experiment [2] is E. coli JM109. The experiment in a line: microbe, parasite or virus in culture. Conditions: for MIC E. coli JM109: Table 3, unit not given (Table 1: μg/mL), median of at least three experiments. It is filed as cell-based, Escherichia coli. On the procedure: as §1, §2
The next experiment has as its system B. subtilis BR151. The experiment in a line: microbe, parasite or virus in culture. The following applies: for MIC B. subtilis BR151: Table 3, unit not given (Table 1: μg/mL), median of at least three experiments. It is filed as cell-based, Bacillus subtilis. How it is done: as §1, §2
For experiment [3], the system named is E. Coli, B. subtilis, methicillin-resistant S. aureus, vancomycin-resistant E. faecium. The experiment in a line: BHI growth inhibition assay, statements over all four strains. It is filed as cell-based. The following applies: BHI broth, up to 50 μg/mL. On the procedure: as §1
Plates were then incubated at 37° C. for 6 h. Bacterial growth gives rise to turbidity and light scattering, which was detected by measuring 0D650 using a Molecular Devices Emax microplate reader connected to a Windows computer running SOFTmax v.2.34. OD650 values from two simultaneous experiments were averaged. […]

Experiment [4] has as its system S. aureus 5332 (clinical MRSA isolate). The experiment in a line: microbe, parasite or virus in culture. It is filed as cell-based, Staphylococcus aureus. The following applies: for MIC S. aureus 5332: Table 3, unit not given (Table 1: μg/mL), median of at least three experiments. How it is done:
as §1, §2

The subject of experiment [5] is E. coli JM109. The experiment in a line: Minimal Bactericidal Concentration (MBC). It is filed as cell-based, Escherichia coli. The following applies: Table 2, unit not given; lowest well concentration showing no colonies (>99% killing); plates incubated 4 d. How it is done: Minimal Bactericidal Concentration (MBC): To determine cell viability, 10 μL from each of the MIC, 2×MIC, and 4×MIC wells (up to the maximum concentration of […]) was diluted 100-fold. Of this, 100 μL (containing at most 5×10^2 CFU) was plated on 2% bacteriological agar in BHI medium and incubated at 37° C. overnight (for B. subtilis) or for 4 d (for E. coli, because no growth was seen after 10 h; colonies appeared on some plates after extended incubation). The absence of colonies was considered indicative of >99% bacterial killing, and the lowest assay well concentration showing no colonies is reported as the MBC.

Converted amounts (≈) assume the structure as drawn. Where a SMILES comes first, the peptide text is derived from it.

Turning to `C=Cc1ccc(CN(C)C)cc1` [(1) (monomer), 4-(dimethylaminomethyl)-styrene], the MIC in experiment [1] (Enterococcus faecium, BHI broth, 37° C., 6 h, tested up to 50 μg/mL, conservative estimates, read-out: Minimum Inhibitory Concentrations (MIC's) E. faecium A436) was > 50 µg/mL; with E. coli JM109 [2] (Escherichia coli, JM109, BHI broth, 37° C., 6 h, tested up to 50 μg/mL, conservative estimates, read-out: Minimum Inhibitory Concentrations (MIC's) E. coli JM109) it was > 50 µg/mL; in the experiment with B. subtilis BR151 (Bacillus subtilis, BR151, BHI broth, 37° C., 6 h, tested up to 50 μg/mL, conservative estimates, read-out: Minimum Inhibitory Concentrations (MIC's) B. subtilis BR151), > 50 µg/mL; in experiment [4] (Staphylococcus aureus, MRSA, BHI broth, 37° C., 6 h, tested up to 50 μg/mL, conservative estimates, read-out: Minimum Inhibitory Concentrations (MIC's) S. aureus 5332), > 50 µg/mL. In experiment [1] (BHI broth, 37° C., 6 h), the MIC E. faecium A436 is > 50 µg/mL. Moreover, the MIC E. coli JM109 in the experiment on E. coli JM109 [2] (BHI broth, 37° C., 6 h) is > 50 µg/mL. Moreover, the MIC B. subtilis BR151 against B. subtilis BR151 (BHI broth, 37° C., 6 h) is > 50 µg/mL. For the same molecule, in experiment [3], the “growth inhibition / inhibitory activity (in words)” value is given as “no growth inhibition”. In experiment [4] (BHI broth, 37° C., 6 h), the MIC S. aureus 5332 was > 50 µg/mL.
Regarding `CC[C@H](C)[C@H](NC(=O)CN)C(=O)NCC(=O)N[C@@H](CCCCN)C(=O)N[C@@H](Cc1ccccc1)C(=O)N[C@@H](CC(C)C)C(=O)N[C@@H](Cc1c[nH]cn1)C(=O)N[C@@H](C)C(=O)N[C@@H](C)C(=O)N[C@@H](CCCCN)C(=O)N[C@@H](CCCCN)C(=O)N[C@@H](Cc1ccccc1)C(=O)N[C@@H](C)C(=O)N[C@@H](CCCCN)C(=O)N[C@@H](C)C(=O)N[C@@H](Cc1ccccc1)C(=O)N[C@H](C(=O)N[C@@H](C)C(=O)N[C@@H](CCC(=O)O)C(=O)N[C@H](C(=O)N[C@@H](CCSC)C(=O)N[C@@H](CC(N)=O)C(=O)N[C@@H](CO)C(N)=O)[C@@H](C)CC)C(C)C` [(Ala^8,3,18)-magainin-2-amide] (H-GIGKFLHAAKKFAKAFVAEIMNS-NH2; N-terminus assumed), the “Minimum Inhibitory Concentrations (MIC's) E. faecium A436” value in experiment [1] (A436 (vancomycin-resistant, 6 h)) is 3.2 µg/mL. Further, the MIC E. faecium A436 in experiment [1] (BHI broth, 37° C., 6 h) is 3.2 µg/mL (≈ 1.29 µM). Besides, the “Minimum Inhibitory Concentrations (MIC's) E. coli JM109” value in the experiment with E. coli JM109 [2] (JM109, 6 h) is 12.5 µg/mL. The molecule also had an MIC E. coli JM109 in the experiment with E. coli JM109 [2] (BHI broth, 37° C., 6 h) of 12.5 µg/mL (≈ 5.04 µM). The “Minimum Inhibitory Concentrations (MIC's) B. subtilis BR151” value with B. subtilis BR151 (BR151, 6 h) is 6.3 µg/mL. In the experiment on B. subtilis BR151 (BHI broth, 37° C., 6 h), the MIC B. subtilis BR151 worked out at 6.3 µg/mL (≈ 2.54 µM). Moreover, in the experiment on E. coli JM109 [5], the “MBC E. coli JM109” value was found to be 25. The “Minimum Inhibitory Concentrations (MIC's) S. aureus 5332” value in experiment [4] (5332 (clinical isolate, 6 h)) stood at 12.5 µg/mL. In experiment [4] (BHI broth, 37° C., 6 h), this molecule came in with an MIC S. aureus 5332 of 12.5 µg/mL (≈ 5.04 µM).
